Data published in PubChem BioAssay AID1259407 (Chemical Carcinogenesis Research Information System (CCRIS), 2018).
Calls of active or inactive are those of the source. No rule for the calls is given here.

Test system: CCRIS mutagenicity, Ames/micronucleus/aberration tests
Test: CCRIS mutagenicity studies
Conditions: Test System: AMES SALMONELLA TYPHIMURIUM
Source text: The CCRIS database contains chemical records with carcinogenicity, mutagenicity, tumor promotion, and tumor inhibition test results. It was developed by the National Cancer Institute (NCI). Data are derived from studies cited in primary journals, current awareness tools, NCI reports, and other sources. Test results have been reviewed by experts in carcinogenesis and mutagenesis.
CCRIS provides historical information from the years 1985 - 2011. It is no longer updated.
This is an archive assay for CCRIS mutagenicity studies.

[1] = Strain/Indicator: TA97, Metabolic Activation: NONE, Method: PREINCUBATION
[2] = Strain/Indicator: TA98, Metabolic Activation: NONE, Method: PREINCUBATION
[3] = Strain/Indicator: TA98, Metabolic Activation: RAT, LIVER, S-9, AROCLOR 1254 (10%), Method: PREINCUBATION
[4] = Strain/Indicator: TA100, Metabolic Activation: NONE, Method: PREINCUBATION
[5] = Strain/Indicator: TA100, Metabolic Activation: RAT, LIVER, S-9, AROCLOR 1254 (10%), Method: PREINCUBATION
[6] = Strain/Indicator: TA98, Metabolic Activation: NONE, Method: STANDARD PLATE
[7] = Strain/Indicator: TA98, Metabolic Activation: RAT, LIVER, S-9, AROCLOR 1254, Method: STANDARD PLATE
[8] = Strain/Indicator: TA100, Metabolic Activation: NONE, Method: STANDARD PLATE
[9] = Strain/Indicator: TA100, Metabolic Activation: RAT, LIVER, S-9, AROCLOR 1254, Method: STANDARD PLATE
[10] = Strain/Indicator: TA1535, Metabolic Activation: NONE, Method: PREINCUBATION

Which mutagenic call [1] does the source give for `O=c1c2[nH]c3ccccc3c2nnn1/N=C/c1ccc(Cl)cc1` here?
Its mutagenic call is “inactive; negative”.

And the mutagenic call (Strain/Indicator: TA97, Metabolic Activation: RAT, LIVER, S-9, AROCLOR 1254 (10%), Method: PREINCUBATION)?
Its mutagenic call is “active; positive”.

And the mutagenic call [2]?
The mutagenic call was “active; positive”.

And the mutagenic call [3]?
Its mutagenic call is “active; positive”.

What about the mutagenic call [4] of the same molecule?
The mutagenic call was “inactive; negative”.

What about the mutagenic call [5] of the same molecule?
The mutagenic call was “active; positive”.

And the mutagenic call (Strain/Indicator: TA102, Metabolic Activation: NONE, Method: PREINCUBATION)?
Its mutagenic call is “inactive; negative”.

What about the mutagenic call (Strain/Indicator: TA102, Metabolic Activation: RAT, LIVER, S-9, AROCLOR 1254 (10%), Method: PREINCUBATION) of the same molecule?
Its mutagenic call is “inactive; negative”.

With `COc1cc([N+](=O)[O-])c(O)c(C(C)(C)C)c1` as the molecule, how does the mutagenic call [6] read?
The mutagenic call was “inactive; negative”.

What about the mutagenic call [7] of the same molecule?
Its mutagenic call is “inactive; negative”.

What about the mutagenic call [8] of the same molecule?
The mutagenic call was “inactive; negative”.

What about the mutagenic call [9] of the same molecule?
The mutagenic call was “inactive; negative”.

Which mutagenic call (Strain/Indicator: TA100, Metabolic Activation: S-9, Method: STANDARD PLATE) does the source give for `CCCCCCCC(=O)N=c1sn(C(=O)CCCCCCC)c2ccc([N+](=O)[O-])cc12` here?
The mutagenic call was “active; positive”.

Which results are given for `CCCCCCC(O)C/C=C\CCCCCCCC(=O)OCC(COC(=O)CCCCCCC/C=C\CC(O)CCCCCC)OC(=O)CCCCCCC/C=C\CC(O)CCCCCC` (configuration not stated)?
mutagenic call (Strain/Indicator: TA97, Metabolic Activation: HAMSTER, LIVER, S-9, AROCLOR 1254 (10 OR 30%), Method: PREINCUBATION): inactive; negative; mutagenic call [1]: inactive; negative; mutagenic call (Strain/Indicator: TA97, Metabolic Activation: RAT, LIVER, S-9, AROCLOR 1254 (10 OR 30%), Method: PREINCUBATION): inactive; negative; mutagenic call (Strain/Indicator: TA98, Metabolic Activation: HAMSTER, LIVER, S-9, AROCLOR 1254 (10 OR 30%), Method: PREINCUBATION): inactive; negative; mutagenic call [2]: inactive; negative; mutagenic call (Strain/Indicator: TA98, Metabolic Activation: RAT, LIVER, S-9, AROCLOR 1254 (10 OR 30%), Method: PREINCUBATION): inactive; negative; mutagenic call (Strain/Indicator: TA100, Metabolic Activation: HAMSTER, LIVER, S-9, AROCLOR 1254 (10 OR 30%), Method: PREINCUBATION): inactive; negative; mutagenic call [4]: inactive; negative; mutagenic call (Strain/Indicator: TA100, Metabolic Activation: RAT, LIVER, S-9, AROCLOR 1254 (10 OR 30%), Method: PREINCUBATION): inactive; negative; mutagenic call (Strain/Indicator: TA1535, Metabolic Activation: HAMSTER, LIVER, S-9, AROCLOR 1254 (10 OR 30%), Method: PREINCUBATION): inactive; negative; mutagenic call [10]: inactive; negative; mutagenic call (Strain/Indicator: TA1535, Metabolic Activation: RAT, LIVER, S-9, AROCLOR 1254 (10 OR 30%), Method: PREINCUBATION): inactive; negative

What does the source list for `O=CN(O)c1cccc(Cl)c1`?
mutagenic call [6]: inactive; negative; mutagenic call [7]: inactive; negative; mutagenic call [8]: inactive; negative; mutagenic call [9]: inactive; negative

Which mutagenic call (Strain/Indicator: TA98, Metabolic Activation: RAT, LIVER, S-9, AROCLOR 1254, Method: PREINCUBATION) does the source give for `Cc1ccc2nc(N)[nH]c2c1` here?
The mutagenic call was “active; positive”.

And the mutagenic call (Strain/Indicator: TA100, Metabolic Activation: RAT, LIVER, S-9, AROCLOR 1254, Method: PREINCUBATION)?
The mutagenic call was “inactive; negative”.

For `CN(Cc1cccc(Br)c1)N=O`, which mutagenic call (Strain/Indicator: TA1535, Metabolic Activation: HAMSTER, LIVER, S-9, AROCLOR 1254, Method: STANDARD PLATE) is on record?
Its mutagenic call is “active; positive”.

And the mutagenic call (Strain/Indicator: TA1535, Metabolic Activation: NONE, Method: STANDARD PLATE)?
Its mutagenic call is “inactive; negative”.

With `O=[N+]([O-])c1ccc2cn[nH]c2c1` as the molecule, how does the mutagenic call [6] read?
Its mutagenic call is “active; positive”.

With `Nc1ccccc1C(=O)C[C@H](N)C(=O)O` as the molecule, how does the mutagenic call [4] read?
The mutagenic call was “inactive; negative”.

With `CC(=O)CC(=O)Nc1ccc(O)cc1` as the molecule, how does the mutagenic call (Strain/Indicator: TA100, Metabolic Activation: HAMSTER, LIVER, S-9, KANECHLOR 400, Method: PREINCUBATION) read?
The mutagenic call was “inactive; negative”.

What about the mutagenic call [4] of the same molecule?
Its mutagenic call is “inactive; negative”.

Which results are given for `CC(C#N)CCC#N` (configuration not stated)?
mutagenic call (Strain/Indicator: TA97, Metabolic Activation: HAMSTER, LIVER, S-9, AROCLOR 1254 (5, 10 OR 30%), Method: PREINCUBATION): inactive; negative; mutagenic call [1]: inactive; negative; mutagenic call (Strain/Indicator: TA97, Metabolic Activation: RAT, LIVER, S-9, AROCLOR 1254 (5, 1O OR 30%), Method: PREINCUBATION): inactive; negative; mutagenic call (Strain/Indicator: TA98, Metabolic Activation: HAMSTER, LIVER, S-9, AROCLOR 1254 (10%), Method: PREINCUBATION): inactive; negative; mutagenic call [2]: inactive; negative; mutagenic call [3]: inactive; negative; mutagenic call (Strain/Indicator: TA100, Metabolic Activation: HAMSTER, LIVER, S-9, AROCLOR 1254 (10%), Method: PREINCUBATION): inactive; negative; mutagenic call [4]: inactive; negative; mutagenic call [5]: inactive; negative; mutagenic call (Strain/Indicator: TA1535, Metabolic Activation: HAMSTER, LIVER, S-9, AROCLOR 1254 (10%), Method: PREINCUBATION): inactive; negative; mutagenic call [10]: inactive; negative; mutagenic call (Strain/Indicator: TA1535, Metabolic Activation: RAT, LIVER, S-9, AROCLOR 1254 (10%), Method: PREINCUBATION): inactive; negative; mutagenic call (Strain/Indicator: TA1537, Metabolic Activation: HAMSTER, LIVER, S-9, AROCLOR 1254 (10 OR 30%), Method: PREINCUBATION): inactive; negative; mutagenic call (Strain/Indicator: TA1537, Metabolic Activation: NONE, Method: PREINCUBATION): inactive; negative; mutagenic call (Strain/Indicator: TA1537, Metabolic Activation: RAT, LIVER, S-9, AROCLOR 1254 (10 OR 30%), Method: PREINCUBATION): inactive; negative
